Experimental data from patent publication US5368775A, “Corrosion control composition and method for boiler/condensate steam system” (priority 1993, dated 1994).
Like-named read-outs stand apart in the source and are kept apart here. Blank lines part the entries; values can stand above or below the compound they belong to.

What was measured:
[1] = cited from earlier work
[2] = cited from earlier work; remark: listed apart in the source
[3] = Lab scale test boiler, DMAPA feed, formation of DMA and TMA in feedwater (GC), 1,450 psig; format: physicochemical
[4] = as above; format: physicochemical; conditions: for Feedwater composition: feedwater initially 200 ppm DMAPA; for Feedwater conductivity / Feedwater pH: DMAPA feed
Text: The following lab scale experiment verified the formation of DMA and TMA.
A research scale, electrically heated test boiler was charged with nitrogen sparged (a mechanical deaeration), demineralized water. The water was supplied by high pressure pump to a D-configuration stainless steel boiler having an internal volume of approximately 5 liters. Two 4000 watt Incoloy 800 resistance heaters produced a steam rate of approximately 17 lbs/hr at a steam pressure of 1,450 psig (correspond to a temperature of 593° F.).
Cycles of concentration were held at approximately 15 by controlling boiler blowdown rate to 1.1 lbs/hr. The saturated steam produced was routed back into the feed tank and mixed with the original feedwater. This follows common industry practice where for economy the maximum amount of condensate is returned to the boiler as feedwater. The feedwater initially contained 200 ppm of DMAPA (Aldrich 99%) and 1.4 ppm hydrazine for deaeration. The feedwater (to which the condensed steam was recycled) was analyzed by gas chromatography and DMA and TMA were quantitated by comparison to external standards.

[5] = Table I properties of amines: basicity, distribution ratios, flash point; format: physicochemical
Text: The preferred relatively high molecular weight amine of the present invention is dimethylaminopropylamine (DMAPA) or N,N-dimethyl-1,3-propanediamine. […] When DMAPA is subjected to common boiler temperatures and pressures of from 100, and preferably over 200, to 1500 psig, the DMAPA will partially decompose. The partial decomposition of DMAPA forms DMA and TMA.

[6] = Research boiler decomposition, 200 to 600 psig (FIG. 1); format: physicochemical; conditions: virtually any pressure, especially above about 200 psig
Text: Additional testing in a research boiler was undertaken at pressures of from 200 to 600 psig in 100 psig steps. The high molecular weight amines tested included DMAPA, DEAE and MOPA. The boiler system was operated at 100% condensate return at 15 cycles. Feed tank, steam and blowdown samples were taken at the end of each run and analyzed by gas chromatograph (GC).
A condensate modeling system was used to simulate the boiler runs and estimate. The theoretical steam concentration possible if no amine decomposition occurred. Using the theoretical concentration and the analytical value obtained from GC analysis, the percent decomposition was calculated and the results summarized in FIG. 1.

[7] = Decomposition of feed amine at boiler conditions from steam concentration (Table III)
Protocol: The effects of common boiler/condensate temperature and pressure on relatively high molecular weight amine was studied. The relatively high molecular weight amines methoxypropylamine (MOPA) and DMAPA were exposed to boiler condition and the steam concentrations of the feed amines measured. From this information the percent decomposition was calculated.

[8] = Low pressure (175 psig) package boiler study of DEAE and DMAPA (Table IV); conditions: for Feedwater concentration / Steam concentration: 175 psig boiler
Protocol: A study of the effects of a relatively low pressure boiler on DEAE and DMAPA was undertaken. The study was conducted in a 175 psig package boiler. The boiler was operated at 41 cycles with no condensate return so that the amine present in the steam could only come from the feedwater and not from the return of condensate. DEAE and DMAPA were-fed simultaneously at 50 ppm to the feedwater. The boiler was operated overnight to allow the system to equilibrate. […] The concentrations were determined by gas chromatography.

[9] = Additional testing of decomposition products of high molecular weight amines; format: physicochemical; conditions: for formation from DMAPA: additional testing with DMAPA

Compound: C1COCCN1 [Morpholine]
Distribution ratio ([1]; at atmospheric pressure): 0.4

Compound: O=C=O [carbon dioxide]
Distribution ratio ([1]; depending upon temperature): ≥ 100

Compound: CNC [DMA, dimethylamine]
pKa [2]: 10.77
Distribution ratio (DR) ([2]; pressure not stated): 2-5
volatility relative to DMAPA [3]: significantly more volatile than DMAPA
Feedwater composition ([4]; 22 hrs., sample 12): 5 ppm
Feedwater composition ([4]; 46 hrs., sample 13): 11 ppm
Feedwater composition ([4]; 79 hrs., sample 14): 20 ppm
Feedwater composition ([4]; 94 hrs., sample 15): 25 ppm
Flash Pt. [5]: 60 °F
Distribution ratio ([5]; 100 psig): 2.4
Distribution ratio ([5]; 200 psig): 2.1
Distribution ratio ([5]; 600 psig): 3.3
Basicity (pKa) ([5]; single or first pKa): 10.8

Compound: CN(C)C [TMA, trimethylamine]
times more volatile than cyclohexylamine ([2]; at boiler pressures from 100 to 1500 psig): 2-5 times
volatility relative to DMAPA [3]: significantly more volatile than DMAPA
Feedwater composition ([4]; 22 hrs., sample 12): 9 ppm
Feedwater composition ([4]; 46 hrs., sample 13): 16 ppm
Feedwater composition ([4]; 79 hrs., sample 14): 25 ppm
Feedwater composition ([4]; 94 hrs., sample 15): 32 ppm
Flash Pt. [5]: 20 °F

decomposition compared to MOPA [6]: significantly higher than MOPA
Steam concentration ([7]; 200 psig, feedwater 106 ppm): 98.4 ppm
Steam concentration ([7]; 600 psig, feedwater 106 ppm): 78.8 ppm
Steam concentration ([7]; 900 psig, feedwater 106 ppm): 68.7 ppm
Steam concentration ([7]; 1450 psig, feedwater 106 ppm): 37.3 ppm
Feedwater concentration ([8]; time 1): 44 ppm
Steam concentration ([8]; time 1): 42 ppm
Feedwater concentration ([8]; time 2): 44 ppm
Steam concentration ([8]; time 2): 42 ppm
Feedwater concentration ([8]; time 3): 45 ppm
Steam concentration ([8]; time 3): 42 ppm
Feedwater concentration ([8]; time 4): 44 ppm
Steam concentration ([8]; time 4): 42 ppm
Feedwater concentration ([8]; time 5): 46 ppm
Steam concentration ([8]; time 5): 42 ppm
Feedwater concentration ([8]; time 6): 44 ppm
Steam concentration ([8]; time 6): 42 ppm
Feedwater concentration ([8]; time 7): 38 ppm
Steam concentration ([8]; time 7): 40 ppm
Feedwater conductivity ([4]; 22 hrs.): 160 uS
Feedwater pH ([4]; 22 hrs.): 10.35
Feedwater conductivity ([4]; 46 hrs.): 195 uS
Feedwater pH ([4]; 46 hrs.): 10.40
Feedwater conductivity ([4]; 79 hrs.): 200 uS
Feedwater pH ([4]; 79 hrs.): 10.65
Feedwater conductivity ([4]; 94 hrs.): 230 uS
Feedwater pH ([4]; 94 hrs.): 10.35
Flash Pt. [5]: 84 °F
Distribution ratio ([5]; 100 psig): 1.1
Distribution ratio ([5]; 200 psig): 1.9
Distribution ratio ([5]; 600 psig): 2.0
pKa ([5]; second of two pKa values, read-out: Basicity (pKa), second value): 8.2
pKa ([5]; single or first pKa, read-out: Basicity (pKa)): 10
Compound: CN(C)CCCN [DMAPA, N,N-dimethyl-1,3-propanediamine]
concentration of DMA and TMA with time on DMAPA addition ([4]; 22 to 94 hrs.): steadily increasing concentration of DMA and TMA with time

Compound: CN [MA, methylamine]
formation from DMAPA [9]: confirmed

Compound: NC1CCCCC1 [cyclohexylamine]
Distribution ratio ([1]; at atmospheric pressure): 4.0

decomposition at boiler conditions ([9]; temperature and pressure common to a typical boiler/condensate steam system): do not decompose
stability at boiler conditions ([7]; 1500 psig): essentially stable
% Decomposition ([7]; 1500 psig, feedwater 61 ppm): 4.9%
Steam concentration ([7]; 1500 psig, feedwater 61 ppm): 58 ppm
% Decomposition ([7]; 2500 psig, feedwater 61 ppm): 24.6%
Steam concentration ([7]; 2500 psig, feedwater 61 ppm): 46 ppm
Compound: COCCCN [MOPA, methoxypropylamine]

Compound: CCN(CC)CCO [DEAE, diethylaminoethanol]
hydrothermal stability ([8]; lower saturation pressures of this test (175 psig boiler)): hydrothermally stable

Compound: CC(O)CN(C)C (centres unmarked) [dimethylisopropanol amine]
Distribution ratio ([1]; at atmospheric pressure): 1.7

Compound: N [ammonia]
Distribution ratio ([1]; at atmospheric pressure): 10.0

Compound: CCNCC [DEA, diethylamine]
Distribution ratio ([2]; at 1000 psig): 28

Compound: dimethylaminopropanol [DMAP]
formation from DMAPA [9]: confirmed
